# Tests used:
# DDR1 = DDR1 (Homo sapiens, UniProt Q08345); experiment: DDR1 in vitro kinase activity assay (LanthaScreen Eu-anti-GST antibody / Kinase Tracer 178); format: binding; conditions: for inhibition at 0.01 µM: compound 10 nM, read-out: DDR1 inhibition rate, 10 nM; for inhibition at 0.1 µM: compound 100 nM, read-out: DDR1 inhibition rate, 100 nM
# Method: DDR1 in vitro Kinase Activity Assay:
# • ENVISION (Perkinelmer, 2104) • White 384-well MicroPlate (Cat #264706, Nunc) • DDR1 (Cat #PV6047, Invitrogen) • 5× Kinase Buffer A (Cat #PV3189, Invitrogen) • Kinase Tracer 178 (Cat #PV5593, Invitrogen) • LanthaScreen® Eu-anti-GST Antibody (Cat #PV5594, Invitrogen)
# The compounds to be tested were tested at two concentrations of 100 nM and 10 nM.
# Kinase/Antibody Mixtures Preparation: Dilute Kinase/Antibody Mixtures with 1× Kinase Buffer to form 3× working solutions with final concentrations of 5 nM kinase and 2 nM Eu-Anti-GST Antibody, respectively.
# Kinase Tracer 178 Preparation: Dilute Kinase Tracer 178 with 1× Kinase Buffer to make a 3× working solution with a final concentration of 10 nM.
# After all reagents were prepared according to the methods described above, except for the enzyme, they were equilibrated to room temperature before starting the sample addition. • a) First, 3% DMSO solutions were prepared separately using the pre-prepared 1× kinase buffer (DMSO concentrations that were too high could affect the reaction, so the final concentration of DMSO was controlled at 1%). Then, the corresponding 3% DMSO solution for the enzyme was used to dilute the test compounds. Compounds were screened with two concentrations of 100 nM and 10 nM. Except for the control wells, 5 μL of the diluted test compound solution was added to the reaction wells, and 5 μL of the pre-prepared 3% DMSO solution was added to the control wells. • b) 5 μL of the pre-prepared Kinase/Antibody mixtures was added to all reaction wells except the negative control wells. For the negative control wells, 5 μL of 1× kinase buffer corresponding to the enzyme was added to make up the volume. • c) 5 μL of the pre-prepared Kinase Tracer 178 solution was added to all reaction wells. • d) The plate was sealed and mixed, incubated at room temperature for 1 hour, and the fluorescence signal was detected using the ENVISION (PerkinElmer) instrument (excitation at 340 nm, emission at 665 nm and 615 nm). The inhibition rate for each well was calculated based on the full-activity control wells and background signal wells, and the average value of the replicates was taken.
# CSF-1R = CSF-1R (Homo sapiens, UniProt P07333); experiment: CSF-1R in vitro kinase activity assay (HTRF kinEASE TK); format: biochemical; conditions: for inhibition at 0.01 µM: compound 10 nM, read-out: CSF-1R inhibition rate, 10 nM; for inhibition at 0.1 µM: compound 100 nM, read-out: CSF-1R inhibition rate, 100 nM
# CSF-1R, sequence (P07333 20-972): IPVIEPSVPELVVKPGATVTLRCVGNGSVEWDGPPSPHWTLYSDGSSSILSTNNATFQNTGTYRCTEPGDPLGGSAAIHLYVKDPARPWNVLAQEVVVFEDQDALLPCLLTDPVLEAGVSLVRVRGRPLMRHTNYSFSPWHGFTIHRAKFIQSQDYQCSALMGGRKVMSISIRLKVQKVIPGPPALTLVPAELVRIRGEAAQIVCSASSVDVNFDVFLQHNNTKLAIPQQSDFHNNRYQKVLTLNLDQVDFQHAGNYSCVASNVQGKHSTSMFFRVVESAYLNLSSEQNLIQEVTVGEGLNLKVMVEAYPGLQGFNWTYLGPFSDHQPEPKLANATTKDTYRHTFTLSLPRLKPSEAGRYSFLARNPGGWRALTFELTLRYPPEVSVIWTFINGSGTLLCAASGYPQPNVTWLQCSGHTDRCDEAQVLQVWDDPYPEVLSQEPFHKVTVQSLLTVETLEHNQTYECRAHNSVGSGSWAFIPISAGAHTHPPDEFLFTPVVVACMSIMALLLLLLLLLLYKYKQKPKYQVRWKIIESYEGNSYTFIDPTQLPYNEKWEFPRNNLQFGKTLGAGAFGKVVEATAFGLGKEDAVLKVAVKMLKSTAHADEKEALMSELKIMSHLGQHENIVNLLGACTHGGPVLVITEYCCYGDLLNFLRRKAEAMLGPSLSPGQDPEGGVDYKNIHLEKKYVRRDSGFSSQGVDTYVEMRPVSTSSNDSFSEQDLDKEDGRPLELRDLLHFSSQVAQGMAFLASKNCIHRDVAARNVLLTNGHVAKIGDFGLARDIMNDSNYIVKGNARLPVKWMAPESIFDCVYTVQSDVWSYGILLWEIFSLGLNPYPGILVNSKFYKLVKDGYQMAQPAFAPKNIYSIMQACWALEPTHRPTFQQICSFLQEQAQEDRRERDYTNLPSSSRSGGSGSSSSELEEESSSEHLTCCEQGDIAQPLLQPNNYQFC
# Text: (§1) CSF-1R, PDGFR-α, KDR (VEGFR2) and KIT in vitro Kinase Activity Assay:
# (§2) • ENVISION (Perkinelmer, 2104) • White 384-well MicroPlate (Cat #264706, Nunc) • HTRF kinEASE TK kit main reagents (Cat #62TKOPEC, Cisbio) • TK-biotin substrate • Streptavidin-XL665 • TK Antibody-Cryptate • 5× Enzymatic buffer (5×KB) • Staphylococcal enterotoxin B (SEB) • HTRF Detection buffer • CSF-1R (Cat #PV3249, Invitrogen) • PDGFR-α (Cat #PV3811, Invitrogen) • KDR (Cat #PV3660, Invitrogen) • KIT (Cat #08-156, Carna) • ATP 10 mM (Cat #PV3227, Invitrogen) • DTT 1 M (Cat #D5545, Sigma) • MgCl2 1 M (Cat #M8266, Sigma) • MnCl2 1 M (Cat #244589, Sigma)
# (§3) Dilute Substrate-TK and ATP to 5× of the reaction concentration using 1× Kinase Buffer.
# (§4) Prepare the 5× enzyme working solution using 1× Kinase Buffer.
# (§5) Prepare the 4×Sa-XL665 working solution using Detection Buffer.
# (§6) Dilute TK-Ab-Cryptate 100 times using Detection Buffer to prepare the working solution.
# (§7) After all reagents were prepared according to the methods described above, except for the enzyme, they were equilibrated to room temperature before starting the sample addition. • a) First, 2.5% DMSO solutions were prepared separately using the pre-prepared 1× kinase buffer (DMSO concentrations that were too high could affect the reaction, so the final concentration of DMSO was controlled at 1%). Then, the corresponding 2.5% DMSO solution for the enzyme was used to dilute the test compounds. Compounds were screened with two concentrations of 100 nM and 10 nM. Except for the control wells, 4 μL of the diluted test compound solution was added to the reaction wells, and 4 μL of the pre-prepared 2.5% DMSO solution was added to the control wells. • b) 2 μL of the pre-prepared TK-biotin substrate solution at the corresponding concentration for the kinase was added to all reaction wells. • c) 2 μL of the pre-prepared enzyme solution at the corresponding concentration was added to all reaction wells except the negative control wells. For the negative control wells, 2 μL of 1× kinase buffer corresponding to the enzyme was added to make up the volume. The plate was sealed with sealing film, mixed gently, and incubated at room temperature for 10 min to allow the compounds to fully interact with the enzyme. • d) 2 μL of the ATP solution at the corresponding concentration for the enzyme was added to all reaction wells to initiate the kinase reaction. ATP concentrations and reaction times for enzyme screening are shown in Table 26 • e) Five minutes before the end of the kinase reaction, the detection solution was prepared. The detection buffer from the kit was used to prepare detection solutions for Streptavidin-XL665 and TK antibody europium cryptate (1:100) at the appropriate concentrations for the two enzymes. • f) After the kinase reaction was completed, 5 μL of the diluted Streptavidin-XL665 solution was added to all reaction wells. After mixing, the diluted TK antibody europium cryptate detection solution was immediately added. • g) The plate was sealed and mixed, incubated at room temperature for 1 hour, and the fluorescence signal was detected using the ENVISION (PerkinElmer) instrument (excitation at 320 nm, emission at 665 nm and 615 nm). The inhibition rate for each well was calculated based on the full-activity control wells and background signal wells, and the average value of the replicates was taken.
# KDR (VEGFR2) = KDR (VEGFR2) (Homo sapiens, UniProt P35968); experiment: KDR (VEGFR2) in vitro kinase activity assay (HTRF kinEASE TK); format: biochemical; conditions: for inhibition at 0.01 µM: compound 10 nM, read-out: VEGFR2 inhibition rate, 10 nM; for inhibition at 0.1 µM: compound 100 nM, read-out: VEGFR2 inhibition rate, 100 nM
# KDR (VEGFR2), sequence (P35968 20-1356): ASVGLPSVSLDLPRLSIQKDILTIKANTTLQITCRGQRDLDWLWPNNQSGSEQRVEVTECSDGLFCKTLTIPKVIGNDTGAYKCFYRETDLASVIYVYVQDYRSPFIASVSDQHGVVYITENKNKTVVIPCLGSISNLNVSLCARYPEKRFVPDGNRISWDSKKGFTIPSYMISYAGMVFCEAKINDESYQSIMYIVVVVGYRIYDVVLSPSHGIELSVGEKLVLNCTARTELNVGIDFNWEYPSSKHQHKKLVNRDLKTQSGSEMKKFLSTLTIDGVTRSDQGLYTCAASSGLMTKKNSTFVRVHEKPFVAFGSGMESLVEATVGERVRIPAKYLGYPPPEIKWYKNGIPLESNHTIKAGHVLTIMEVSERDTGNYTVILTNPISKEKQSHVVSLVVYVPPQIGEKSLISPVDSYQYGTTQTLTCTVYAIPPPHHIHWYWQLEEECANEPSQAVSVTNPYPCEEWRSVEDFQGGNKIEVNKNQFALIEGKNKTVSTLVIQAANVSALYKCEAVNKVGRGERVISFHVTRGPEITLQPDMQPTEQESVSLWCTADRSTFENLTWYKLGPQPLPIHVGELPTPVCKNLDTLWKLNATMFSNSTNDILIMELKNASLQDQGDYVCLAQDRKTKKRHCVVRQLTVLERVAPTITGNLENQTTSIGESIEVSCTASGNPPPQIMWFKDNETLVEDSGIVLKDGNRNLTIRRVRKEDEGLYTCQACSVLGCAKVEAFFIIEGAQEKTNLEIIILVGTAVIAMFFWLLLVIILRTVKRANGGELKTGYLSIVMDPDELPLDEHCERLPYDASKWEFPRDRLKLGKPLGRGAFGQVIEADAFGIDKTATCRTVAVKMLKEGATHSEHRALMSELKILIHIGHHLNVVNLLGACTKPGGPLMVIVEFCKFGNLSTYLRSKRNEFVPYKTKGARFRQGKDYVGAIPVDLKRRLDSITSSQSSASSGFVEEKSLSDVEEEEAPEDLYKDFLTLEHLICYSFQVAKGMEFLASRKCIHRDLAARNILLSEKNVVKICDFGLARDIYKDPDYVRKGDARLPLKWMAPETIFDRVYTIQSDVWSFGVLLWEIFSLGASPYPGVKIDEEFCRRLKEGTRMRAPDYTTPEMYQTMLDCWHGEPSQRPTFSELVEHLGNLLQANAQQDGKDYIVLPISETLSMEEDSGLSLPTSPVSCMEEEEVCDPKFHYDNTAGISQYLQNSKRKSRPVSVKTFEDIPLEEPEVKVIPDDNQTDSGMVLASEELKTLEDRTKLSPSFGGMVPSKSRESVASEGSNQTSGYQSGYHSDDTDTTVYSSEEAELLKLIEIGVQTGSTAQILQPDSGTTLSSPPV
# Text: as §1, §2, §3, §4, §5, §6, §7
# DDR1, sequence (Q08345 19-913): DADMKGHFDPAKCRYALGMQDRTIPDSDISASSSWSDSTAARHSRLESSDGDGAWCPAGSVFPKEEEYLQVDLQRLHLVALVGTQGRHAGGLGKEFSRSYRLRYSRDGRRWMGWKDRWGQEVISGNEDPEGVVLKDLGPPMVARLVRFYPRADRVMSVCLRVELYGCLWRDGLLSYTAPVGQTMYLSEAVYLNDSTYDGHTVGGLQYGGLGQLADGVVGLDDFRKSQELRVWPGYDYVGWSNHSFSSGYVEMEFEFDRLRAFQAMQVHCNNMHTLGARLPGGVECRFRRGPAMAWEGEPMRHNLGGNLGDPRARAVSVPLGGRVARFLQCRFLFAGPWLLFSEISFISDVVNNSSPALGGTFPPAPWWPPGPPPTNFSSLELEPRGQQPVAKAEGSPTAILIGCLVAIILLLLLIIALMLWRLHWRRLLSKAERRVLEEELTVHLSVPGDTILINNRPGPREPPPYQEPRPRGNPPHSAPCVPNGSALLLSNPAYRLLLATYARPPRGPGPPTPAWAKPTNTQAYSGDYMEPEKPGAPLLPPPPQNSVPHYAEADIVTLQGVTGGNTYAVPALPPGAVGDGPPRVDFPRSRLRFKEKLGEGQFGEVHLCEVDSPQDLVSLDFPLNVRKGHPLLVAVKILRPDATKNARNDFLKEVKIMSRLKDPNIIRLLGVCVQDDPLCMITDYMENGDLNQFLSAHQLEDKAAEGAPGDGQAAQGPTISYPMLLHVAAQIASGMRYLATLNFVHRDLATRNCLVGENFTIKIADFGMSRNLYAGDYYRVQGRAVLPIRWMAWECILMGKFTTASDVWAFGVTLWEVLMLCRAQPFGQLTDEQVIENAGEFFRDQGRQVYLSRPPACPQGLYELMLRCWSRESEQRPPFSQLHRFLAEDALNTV
inhibition at 0.01 µM (DDR1),inhibition at 0.1 µM (DDR1),inhibition at 0.01 µM (CSF-1R),inhibition at 0.1 µM (CSF-1R),inhibition at 0.01 µM (KDR (VEGFR2)),inhibition at 0.1 µM (KDR (VEGFR2)),Structure (SMILES)
75.1%,97.9%,24.3%,98.4%,95%,100%,CN(c1cnc2cn(C)nc2c1)[C@H]1CCc2c(C(=O)Nc3nn(C)c4ccccc34)cccc21 [Compound 80l]
94.7%,103%,89.7%,97%,88.4%,102%,Cc1cncc(NC(=O)c2cccc3c2CC[C@@H]3Nc2cncc(-c3cnn(C)c3)c2)c1 [Compound 14as]
86.1%,96.7%,80.1%,101%,91.7%,102%,Cc1cncc(NC(=O)c2cccc3c2CC[C@@H]3Oc2cncc(-c3cnn(C)c3)c2)c1 [Compound 19j]
69.4%,102%,79.4%,100%,92.3%,101%,"Cn1cc(-c2cncc(O[C@H]3CCc4c(C(=O)Nc5cncc(Cl)c5)cccc43)c2)cn1 [Compound 19a, (S)—N-(5-chloropyridin-3-yl)-1-((5-(1-methyl-1H-pyrazol-4-yl)pyridin-3-yl)oxy)-2,3-dihydro-1H-indene-4-carboxamide]"
15.9%,88%,49%,90.5%,60%,97.3%,"Cc1cccc(C(=O)Nc2cccc3c2CC[C@@H]3Oc2cncc(-c3cnn(C)c3)c2)c1 [Compound 15, (S)-3-methyl-N-(1-((5-(1-methyl-1H-pyrazol-4-yl)pyridin-3-yl)oxy)-2,3-dihydro-1H-inden-4-yl)benzamide]"
65.3%,97.1%,72%,96.6%,24.6%,84.4%,CN(C)Cc1cncc(NC(=O)c2cccc3c2CC[C@@H]3Oc2cncc(-c3cnn(C)c3)c2)c1 [Compound 19h]
93.2%,104%,74.6%,95.3%,83.1%,99.6%,"Cn1cc(-c2cncc(N[C@H]3CCc4c(C(=O)Nc5cncc(Cl)c5)cccc43)c2)cn1 [Compound 14aa, (S)—N-(5-chloropyridin-3-yl)-1-((5-(1-methyl-1H-pyrazol-4-yl)pyridin-3-yl)amino)-2,3-dihydro-1H-indene-4-carboxamide]"
75.8%,100%,63.5%,96.7%,14.7%,66.2%,CN1CCc2ccc(NC(=O)c3cccc4c3CC[C@@H]4Nc3cncc(-c4cnn(C)c4)c3)cc2C1 [Compound 14ap]
37.9%,85.6%,41%,101%,26.8%,58.1%,Cn1cc(-c2cncc(N[C@H]3CCc4c(C(=O)Nc5ccc(C(F)(F)F)nc5)cccc43)c2)cn1 [Compound 14ah]
84%,105%,71.9%,97.4%,93.6%,102%,Cn1cc(-c2cncc(O[C@H]3CCc4c(C(=O)Nc5cccc(C6CC6)c5)cccc43)c2)cn1 [Compound 19b]
72.5%,103%,71.9%,97.3%,85.4%,98.3%,"Cn1ncc2ncc(O[C@H]3CCc4c(C(=O)Nc5cncc(Cl)c5)cccc43)cc21 [Compound 76ac, (S)—N-(5-chloropyridin-3-yl)-1-((1-methyl-1H-pyrazolo[4,3-b]pyridin-6-yl)oxy)-2,3-dihydro-1H-indene-4-carboxamide]"
32.4%,86%,34%,96.7%,52.5%,96.4%,"CN(c1cncc(-c2cnn(C)c2)c1)[C@H]1CCc2c(C(=O)Nc3cccc(C4CC4)c3)cccc21 [Compound 22a, (S)—N-(3-cyclopropylphenyl)-1-(methyl (5-(1-methyl-1H-pyrazol-4-yl)pyridin-3-yl)amino)-2,3-dihydro-1H-indene-4-carboxamide]"
14.7%,83.9%,73.7%,96.5%,43%,91.9%,CN(c1cnc2cn(C)nc2c1)[C@H]1CCc2c(C(=O)Nc3cncc(Cl)c3)cccc21 [Compound 80k]
20.2%,78.2%,26.9%,100%,18.6%,63.9%,"Cn1cc(-c2cncc(N[C@H]3CCc4c(Nc5cc(C(C)(C)C)on5)cccc43)c2)cn1 [Compound 41, (S)—N^4-(5-(tert-butyl)isoxazol-3-yl)-N^1-(5-(1-methyl-1H-pyrazol-4-yl)pyridin-3-yl)-2,3-dihydro-1H-indene-1,4-diamine]"

# Source: patent publication US20260125359A1, “HETEROARYL COMPOUNDS AS MULTI-TARGET PROTEIN KINASE INHIBITORS” (FUJIAN HAIXI PHARMACEUTICALS CO., LTD., priority 2023, published 2026)
